Laboratory results: the METLIN SMRT retention time set (Domingo-Almenara et al. 2019)

Test: gradient 5% acetonitrile 3 min, to 50% in 2 min, to 85% in 15 min, held 3 min, 100 µL/min
Settings: column: Zorbax Extend-C18 2.1 x 50 mm; eluents: water / acetonitrile, 0.1% formic acid
Summary of the method: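 In both positive and negative ionization mode, a quadrupole time-of-flight mass spectrometer coupled to HPLC analyzed pure standards run in mixtures of ~100 molecules. The Zorbax Extend-C18 column (2.1 × 50 mm, 1.8 μm) was operated at 100 μL/min with water and acetonitrile, each containing 0.1% formic acid. The dead volume was 40 μL and the dwell volume 900 μL. Retention time came from adduct peaks that were computationally picked and individually inspected by hand.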

RP-LC retention time [s] | Structure (SMILES)
842 | Cn1c(=O)c2cc(C(=O)Nc3ccc4c(c3)OCCO4)cnc2n(-c2ccccc2)c1=O
693 | Cc1cccc(NC(=O)N2CCN(CC(=O)c3c(C)n(C)c4ccccc34)CC2)c1
880 | Cc1nc(-c2ccccc2)cc2nn(CC(=O)NC3CCCCC3)c(=O)n12
646 | CCc1cccc(C)c1NC(=O)Cn1cnc2nc(N3CCC(C(=O)NC)CC3)sc2c1=O
802 | Cc1cc(OCC(=O)Nc2ccc(C#N)cc2)nc(N2CCN(c3ccccc3)CC2)n1
671 | CN1CCN(C(=O)Cn2c(-c3cccs3)cc3ccccc32)CC1
625 | Cc1ccsc1CCNC(=O)C1CCN(C(=O)c2cc(-c3cccnc3)n[nH]2)CC1
961 | O=C(Cc1ccccc1F)N1CCc2cc(-c3ccno3)ccc21
1040 | COc1ccc(C(=O)Nc2nc(-c3ccccc3)cs2)cc1
744 | CCOc1cc2c(cc1OCC)C1C(C(=O)NCCOC)c3ccccc3C(=O)N1CC2 (stereo not given)
1030 | CC1CCN(c2nc(-c3ccc([N+](=O)[O-])cc3)nc3ccccc23)CC1
1040 | Cn1cc(C(=O)Nc2cccc(Cl)c2)c2nn(-c3ccccc3)c(=O)c-2c1
869 | Cn1c(=O)c2cc(C(=O)NCc3cc(F)ccc3F)nn2c2ccccc21
730 | CS(=O)(=O)N1CCCC1C(=O)Nc1cccc(F)c1 (stereo not given)
751 | COCCC(=O)Nc1c(-c2ccccc2)nc2sc(N3CCCCC3)nn12
617 | CCCNC(=O)C1CCCN(c2ccc(SCC(=O)Nc3ccccc3Cl)nn2)C1 (stereo not given)

RP-LC retention time [s] | Structure (SMILES)
725 | COc1cccc(NC(=O)Cn2cnc(-c3noc(C4CC4)n3)c2)c1
685 | Cn1ccc2cc(S(=O)(=O)N3CCCC(C(=O)NC4CCN(Cc5ccccc5)CC4)C3)ccc21 (stereo not given)
797 | COc1ccc(OC)c(CNC(=O)C2CCN(c3nnc(-c4ccccc4)o3)CC2)c1
658 | Cn1nc(C(=O)N2CCCC(C(=O)N3CCCC3)C2)c2c1CCN(C(=O)c1ccccc1F)C2 (stereo not given)
1060 | CSc1cccc(NC(=O)c2nnn(-c3ccccc3)c2C)c1
668 | O=C(c1cn2c(n1)CCCC2)N(Cc1ccccc1)Cc1ccco1
591 | Cc1onc(-c2ccccc2Cl)c1C(=O)NCCN(C)C
778 | CN(C)c1ccc(C(=O)NCc2nn(C)c3ccccc23)cc1
653 | CC(C)S(=O)(=O)c1ccc(C(=O)N2CC(=O)Nc3ccccc32)cc1
1260 | CCCCCCCNC(=O)C1CCCN(c2ncc(-c3ccccc3)cn2)C1 (stereo not given)
862 | O=C(Nc1cccc2nsnc12)C1CCN(S(=O)(=O)N2CCCC2)CC1
763 | Cn1nc(Br)nc1Sc1ccccc1NC(=O)C1CC1
840 | COc1ccccc1NC(=O)N1CCC2(CC1)N=C(c1cccc(F)c1)C(=O)N2
666 | Cc1cc2n(n1)CCC(=O)N2CCCC(=O)NCCc1ccccc1
757 | COc1cccc(CC(=O)N2CCCC2c2cc(C)on2)c1 (stereo not given)

Second part, the molecule before the results:

Structure (SMILES) | RP-LC retention time [s]
Cc1sc(C)c(S(=O)(=O)Nc2cccc(Cl)c2)c1-c1cc(C(F)(F)F)on1 | 1190
CN(CC(=O)O)c1nc2c(Cl)cc(Cl)cc2s1 | 888
O=C(Nc1cccc(OCc2nnc(-c3ccccc3)o2)c1)c1ccnc(Cl)c1 | 926
O=S(=O)(c1cc(-c2nnc(-c3ccccc3)o2)ccc1F)N1CCOCC1 | 888
O=C(NC1CCCC1)c1nnc(-c2ccc(S(=O)(=O)N3CCOCC3)cc2)o1 | 804
CC1=C(c2ccc(C)cc2)S(=O)(=O)N=C1N1CCCN(C(=O)C2CCCO2)CC1 (stereo not given) | 733
O=C(CN(CC1CCCO1)C(=O)c1ccc(Cl)cc1)N1CCNCC1 (stereo not given) | 605
O=C(CN1CCC2(CC1)N=C(c1ccc(Cl)cc1)C(=O)N2)NCc1ccc2c(c1)OCO2 | 680
CCc1cc(N2CCN(C(=O)c3ccc4c(c3)OCO4)CC2)nc2nnc(C)n12 | 607
CCCC(N[C@@H](C)C(=O)N1[C@H](C(=O)O)C[C@@H]2CCCC[C@@H]21)C(=O)OCC (stereo not given in full) | 703
CCCS(=O)(=O)N1CCc2ccc(NC(=O)Nc3cc(Cl)ccc3OC)cc2C1 | 995
Cc1ccc(C(=O)N2CCC3(CC2)N=C(c2ccc(Br)cc2)NO3)cc1 | 875
Cc1cccc(C)c1OCC(=O)c1ccc2c(c1)N(CCCC(=O)NCC1CCCO1)C(=O)CO2 (stereo not given) | 803
CN1c2ccc(F)cc2C(=O)NC12CCN(C(=O)c1ccc3c(c1)OCO3)CC2 | 724
Cn1cc(C(=O)NCCN2CCCCC2)c(S(=O)(=O)N2CCN(c3ccc(Cl)cc3)CC2)n1 | 728
COc1cc(C(=O)N2CCC3(CC2)NC(=O)c2cc(F)ccc2N3C)cc(OC)c1OC | 655
Cc1ccc(C(=O)N2CCC(COc3ccc(C(=O)NC(C)C)cc3)CC2)s1 | 888
Cc1[nH]c2ccccc2c1C(=O)C(=O)NCCn1ccc2ccccc21 | 844
O=C(Cc1ccsc1)Nc1ccc2c(N3CCOCC3)ncnc2c1 | 619
CCn1c(=O)c2ccccc2n(Cc2nc(-c3ccc(F)cc3)no2)c1=O | 1010

Structure (SMILES) | RP-LC retention time [s]
CCN(CC)CCNC(=O)c1nnc(-c2ccc(S(=O)(=O)N3CCCC3)cc2)o1 | 670
CN(C)C(CNS(=O)(=O)/C=C/c1ccccc1)c1cn(C)c2ccccc12 (stereo not given) | 602
CCOC(=O)C1CCCN(C(=O)CCC2CCCN(c3cc(NC4CC4)ncn3)C2)C1 (stereo not given) | 666
CCN(C(=O)Cn1nc(C(=O)N2CCCCC2)c2ccccc21)c1cccc(C)c1 | 1010
COc1cccc(-n2c(=O)c(C(=O)Nc3ccc(F)c(Cl)c3)c(O)c3cccnc32)c1 | 1250
O=C(c1cc2c(s1)CCC(C(=O)N1CCOCC1)C2)N1CCCCC1 (stereo not given) | 701
CC1=NS(=O)(=O)N(Cc2ccccc2)C=C1C(=O)OCc1ccccc1Cl | 1160
Cc1cccn2c(Nc3ccccc3)c(-c3ccc(N4CCOCC4)cc3)nc12 | 684
O=C1CN(S(=O)(=O)c2cccc(C(F)(F)F)c2)CC2(CCCCC2)N1C1CCCC1 | 1250
CCc1ccc(-c2ccc(=O)n(Cc3nc(-c4cccs4)no3)n2)cc1 | 1060
O=C(NCc1ccccc1)C1=C2CCCN2c2ccccc2S1(=O)=O | 810
C=C(C)COc1ccc2oc(C)c(C(=O)O)c2c1 | 879
COc1ccc(C2C(C(=O)NC3CCCCCC3)CCC(=O)N2c2ccc(OC)cc2)cc1 (stereo not given) | 807
CCc1ccc(N2CC(c3noc(-c4ccc(C)cc4)n3)CC2=O)cc1 (stereo not given) | 1170
COCc1nc(C2CCCN(C(=O)NC3CCCC3)C2)no1 (stereo not given) | 743
COCCc1nncn1C1CN(Cc2cccc(OC(F)(F)F)c2)C1 | 606
COc1cccc(-c2cc3n(n2)CCCN(C(=O)c2ccc(OC)c(OC)c2)C3)c1 | 654
N#Cc1cccc(-c2cn3c(n2)N(C(=O)c2ccccc2)CCC3)c1 | 708
COc1cccc(CNC(=O)c2nc(N3CCOCC3)c3c(C)cc(C)nc3n2)c1 | 625
CC(C)CN1CCn2cc(S(=O)(=O)Nc3ccc(Cl)cc3)cc2C1=O | 848

Structure (SMILES) | RP-LC retention time [s]
COc1ccccc1CNC(=O)C1c2ccccc2C(=O)N2CCc3cc(OC)c(OC)cc3C12 (stereo not given) | 735
CNC(=O)[C@@H]1CN(S(=O)(=O)c2cnc[nH]2)C[C@H]1c1nc(C)no1 | 568
O=C(Nc1ccc(F)cc1F)N1CCC(N2CCN(Cc3ccc(F)cc3)C2=O)CC1 | 802
CCOC1CCOC2(CCN(C(=O)c3ccoc3)CC2)C1 (stereo not given) | 686
CCOC(=O)Cc1csc(NS(=O)(=O)c2cn(C)nc2C)n1 | 592
O=S(=O)(c1cccc(F)c1)N1CCc2nc(-c3ccc(Cl)cc3)ncc2C1 | 1130
CN1CCc2nnc(C3CCCN3C(=O)Nc3cc(Cl)cc(Cl)c3)n2CC1 (stereo not given) | 566
O=C(NCc1ccccc1)c1nnc(-c2ccc(S(=O)(=O)N3CCCC3)cc2)o1 | 879
CN1c2ccc(F)cc2C(=O)NC12CCN(C(=O)NCc1ccc(F)cc1)CC2 | 750
CCOC(=O)C1CCCN(C(=O)C2CCN(S(=O)(=O)c3ccc4c(ccn4CC)c3)CC2)C1 (stereo not given) | 849
Cc1c(C(=O)NCc2cccnc2)oc2c1C(=O)CC(C)(C)C2 | 560
CCCNS(=O)(=O)c1ccc(Cl)c(-c2nnc(-c3ccccc3)o2)c1 | 1010
Cc1cc2nc(C)c(CCC(=O)O)c(C)n2n1 | 597
Cc1cc(C)n2nc(CN(C(=O)c3ccco3)c3ccc(F)cc3)nc2n1 | 715
CN(C)C(=O)c1cc2c(s1)CCC(C(=O)N1CCN(C3CCCC3)CC1)C2 (stereo not given) | 573
NC(=O)CCSc1nnc(SCC(=O)c2ccccc2)s1 | 675
CCc1noc([C@@H]2CC(F)(F)CN2C(=O)c2occc2C)n1 | 840
Cc1cc(NC(=O)c2ccc(-n3ccnc3)nn2)no1 | 553
Cc1nnc(-c2coc(S(=O)(=O)N3CCCCC3)c2)o1 | 767
